The record followed here is PubChem BioAssay AID1259407 (Chemical Carcinogenesis Research Information System (CCRIS), 2018).

The source made the active and inactive calls. No rule for the calls is given here.

The series concerns CCRIS mutagenicity, Ames/micronucleus/aberration tests. Briefly: CCRIS mutagenicity studies.
Setting [1] is: Test System: AMES SALMONELLA TYPHIMURIUM, Strain/Indicator: TA98, Metabolic Activation: NONE, Method: PREINCUBATION
The mark [2] stands for this setting: Test System: AMES SALMONELLA TYPHIMURIUM, Strain/Indicator: TA100, Metabolic Activation: NONE, Method: PREINCUBATION

On to `Cc1c2ccccc2cc2c3c(ccc12)C(=O)C(=O)C=C3`, for which the mutagenic call was “active; positive” (Test System: AMES SALMONELLA TYPHIMURIUM, Strain/Indicator: TA97A, Metabolic Activation: NONE, Method: PREINCUBATION); “inactive; negative” under setting [1]; “inactive; negative” under setting [2]; “inactive; negative” (Test System: AMES SALMONELLA TYPHIMURIUM, Strain/Indicator: TA102, Metabolic Activation: NONE, Method: PREINCUBATION); “inactive; negative” (Test System: AMES SALMONELLA TYPHIMURIUM, Strain/Indicator: TA104, Metabolic Activation: NONE, Method: PREINCUBATION).

Turning to `CC(=O)OCc1cccc([N+](=O)[O-])c1`, the mutagenic call was “inactive; negative” under setting [1]; “inactive; negative” under setting [2]; “inactive; negative” (Test System: AMES SALMONELLA TYPHIMURIUM, Strain/Indicator: TA100, Metabolic Activation: RAT, LIVER, S-9, AROCLOR 1254, Method: PREINCUBATION).

As for `Cc1cc(N)cc([N+](=O)[O-])c1N`, the mutagenic call reads like this: (Test System: AMES SALMONELLA TYPHIMURIUM, Strain/Indicator: TA98, Metabolic Activation: RAT, LIVER, S-9, AROCLOR 1254, Method: STANDARD PLATE) “active; positive”; (Test System: AMES SALMONELLA TYPHIMURIUM, Strain/Indicator: TA1538, Metabolic Activation: RAT, LIVER, S-9, AROCLOR 1254, Method: STANDARD PLATE) “active; positive”.

In the case of `O=C(O)CNC(=O)c1ccc([N+](=O)[O-])cc1`, the mutagenic call is “inactive; negative” (Test System: AMES SALMONELLA TYPHIMURIUM, Strain/Indicator: TA98, Metabolic Activation: HAMSTER, LIVER, S-9, AROCLOR 1254 (30%), Method: PREINCUBATION); “active; positive” under setting [1]; “inactive; negative” (Test System: AMES SALMONELLA TYPHIMURIUM, Strain/Indicator: TA98, Metabolic Activation: RAT, LIVER, S-9, AROCLOR 1254 (30%), Method: PREINCUBATION); “inactive; negative” (Test System: AMES SALMONELLA TYPHIMURIUM, Strain/Indicator: TA100, Metabolic Activation: HAMSTER, LIVER, S-9, AROCLOR 1254 (5, 10 OR 30%), Method: PREINCUBATION); “active; positive” under setting [2]; “inactive; negative” (Test System: AMES SALMONELLA TYPHIMURIUM, Strain/Indicator: TA100, Metabolic Activation: RAT, LIVER, S-9, AROCLOR 1254 (5, 10 OR 30%), Method: PREINCUBATION). The mutagenic call is, setting by setting: (Test System: AMES SALMONELLA TYPHIMURIUM, Strain/Indicator: TA1535, Metabolic Activation: HAMSTER, LIVER, S-9, AROCLOR 1254 (5, 10 OR 30%), Method: PREINCUBATION) “inactive; negative”; (Test System: AMES SALMONELLA TYPHIMURIUM, Strain/Indicator: TA1535, Metabolic Activation: NONE, Method: PREINCUBATION) “inactive; negative”; (Test System: AMES SALMONELLA TYPHIMURIUM, Strain/Indicator: TA1535, Metabolic Activation: RAT, LIVER, S-9, AROCLOR 1254 (5, 10 OR 30%), Method: PREINCUBATION) “inactive; negative”; (Test System: AMES SALMONELLA TYPHIMURIUM, Strain/Indicator: TA1538, Metabolic Activation: NONE, Method: PREINCUBATION) “active; positive”.

With `CCCCCCC(O)CCCCCCCCCCC(=O)O` (stereo not drawn), the mutagenic call reads like this: (Test System: AMES SALMONELLA TYPHIMURIUM, Strain/Indicator: TA97, Metabolic Activation: NONE, Method: STANDARD PLATE) “inactive; negative”; (Test System: AMES SALMONELLA TYPHIMURIUM, Strain/Indicator: TA97, Metabolic Activation: S-9, Method: STANDARD PLATE) “inactive; negative”; (Test System: AMES SALMONELLA TYPHIMURIUM, Strain/Indicator: TA98, Metabolic Activation: NONE, Method: STANDARD PLATE) “inactive; negative”; (Test System: AMES SALMONELLA TYPHIMURIUM, Strain/Indicator: TA100, Metabolic Activation: NONE, Method: STANDARD PLATE) “inactive; negative”; (Test System: AMES SALMONELLA TYPHIMURIUM, Strain/Indicator: TA100, Metabolic Activation: S-9, Method: STANDARD PLATE) “inactive; negative”; (Test System: AMES SALMONELLA TYPHIMURIUM, Strain/Indicator: TA102, Metabolic Activation: NONE, Method: STANDARD PLATE) “inactive; negative”. The mutagenic call by setting is: (Test System: AMES SALMONELLA TYPHIMURIUM, Strain/Indicator: TA102, Metabolic Activation: S-9, Method: STANDARD PLATE) “inactive; negative”; (Test System: E.COLI, Strain/Indicator: WP2 (PKM101), Metabolic Activation: NONE, Method: STANDARD PLATE) “inactive; negative”; (Test System: E.COLI, Strain/Indicator: WP2 (PKM101), Metabolic Activation: S-9, Method: STANDARD PLATE) “inactive; negative”.

In the case of `Cc1ccc(NN=NCc2ccccc2)cc1`, the mutagenic call by setting is: under setting [1], “active; positive”; (Test System: AMES SALMONELLA TYPHIMURIUM, Strain/Indicator: TA98, Metabolic Activation: RAT, LIVER, S-9, PCB, Method: PREINCUBATION) “active; positive”; under setting [2], “active; positive”; (Test System: AMES SALMONELLA TYPHIMURIUM, Strain/Indicator: TA100, Metabolic Activation: RAT, LIVER, S-9, PCB, Method: PREINCUBATION) “active; positive”.
